# Source: patent publication US20140023602A1, “EXTERNAL PREPARATION FOR SKIN CONTAINING A PHOSPHORYLATED SACCHARIDE” (EZAKI GLICO CO., LTD., priority 2005, published 2014)
# Several values for one entry are separate records, joined by “and”; a condition that tells them apart may be missing. Equal values may be shown once.
# Columns and labels:
# [1] = buffer; for Water retention ratio: Remaining ratio after 1 minute (%): 1 min
# Protocol: 0.1% to 1% Aqueous phosphorylated saccharide mineral salt solutions were prepared. Ten μl/paper of the aqueous phosphorylated saccharide mineral salt solution was impregnated into a paper disc (8 mm) [manufactured by Advantech], and the water-retention effect was evaluated by measuring the remaining water over time for 10 minutes under a constant condition. For comparison, 0.1% solution of hyaluronic acid or 1% solution of glycerol, which are known as water retention component, were used. Distilled water was used as a control.
# [2] = test system: Normal human skin fibroblast cells; assay: Collagen production by human skin fibroblast, Sircol collagen assay; type: cell-based
# Protocol: (§1) Normal human skin fibroblast cells were adjusted with 10% D-MEM (manufactured by Invitrogen) to a density of 2.5×10^4 cells per well, and preincubated on the 96-well plate for 24 hours. After removal of the medium, phosphorylated saccharide calcium salt adjusted to a concentration of 1% with 4% D-MEM was added to each well as a test sample, and then the mixture was cultured at 37° C. under 5% CO2 for 72 hours. After the completion of the culture, the amount of collagen in the medium was measured. The amount of collagen was measured by using a Sircol collagen assay Kit (manufactured by Biocolor Ltd.).
# (§2) Normal human skin fibroblast cells were adjusted with 10% D-MEM (manufactured by Invitrogen) to a density of 2.5×10^4 cells per well, and preincubated on the 96-well plate for 24 hours. After removal of the medium, phosphorylated saccharide calcium salt adjusted to a concentration of 1% with 4% D-MEM and 0.0044% ascorbic acid as a test sample, or 0.0044% ascorbic acid as a control was added to each well, and then the mixture was cultured at 37° C. under 5% CO2 for 72 hours. After the completion of the culture, the amounts of collagen in the medium and on the cell surface were measured. The amount of collagen was measured by using a Sircol collagen assay Kit (manufactured by Biocolor Ltd.). The collagen on cell surface was measured after pepsin treatment.
# as §1, with “potassium” for “calcium”, “then” for “then the mixture was”
# as §2, with “phosphorylated saccharide potassium salt adjusted” for “phosphorylated saccharide calcium salt adjusted”, “acid as control was” for “acid as a control was”, “medium and the cell” for “medium and on the cell”
# [3] = inorganic chloride as comparison, concentration not given
Water retention ratio: Remaining ratio after 1 minute (%) [1],Water retention ratio: Remaining ratio after 10 minutes (%) [1],Compound,"induction of collagen production (in words) [2, 3]",also measured
98.84%,88.23%,OCC(O)CO [glycerol],–,–
98.84%,83.73%,hyaluronic acid,–,–
–,–,[Cl-].[K+] [potassium chloride],–,"induction of the collagen production (amount of collagen) ([2]; inorganic chloride as comparison, concentration not given, 72 hours): 2.2 µg/mL"
–,–,O=C1O[C@H]([C@@H](O)CO)C(O)=C1O [ascorbic acid],–,"amount of collagen in the medium ([2]; 0.0044% ascorbic acid alone, 72 hours): 55.1 µg/mL and 44.1 µg/mL and 50.1 µg/mL and 52.1 µg/mL; amount of collagen on the cell surface ([2]; 0.0044% ascorbic acid alone, 72 hours, after pepsin treatment): 23.1 µg/mL and 23.0 µg/mL and 21.3 µg/mL; increase of amount of collagen in the medium compared to control well ([2]; 0.0044% ascorbic acid in 4% FBS-DMEM, 72 hours): 1.4 µg"
–,–,[Ca+2].[Cl-].[Cl-] [calcium chloride],no induction of collagen production was observed,–
–,–,[Cl-].[Cl-].[Mg+2] [magnesium chloride],no significant collagen production induction was observed,–
